# Assay: Cytotoxicity against human NSCLC-N6 cells by MTT assay
# Format: functional, cell-based
row,Structure (SMILES),IC50 [µg/mL]
1,C=C1C[C@H](C)C(=O)N[C@@H](C)C(=O)N(C)[C@H](Cc2c(Br)[nH]c3ccccc23)C(=O)N[C@@H](c2ccc(O)cc2)CC(=O)O[C@@H](C)C[C@@H](C)C1O (stereo partly drawn) [JASPAMIDE C],1.1
2,C/C1=C\[C@H](C)C[C@H](C)OC(=O)C[C@H](c2ccc(O)cc2)NC(=O)[C@@H](Cc2c(Br)[nH]c3ccccc23)N(C)C(=O)[C@H](C)NC(=O)[C@@H](C)C1 [JASPAMIDE],0.36
3,C=C1C[C@H](C)C(=O)N[C@@H](C)C(=O)N(C)[C@H](Cc2c(Br)[nH]c3ccccc23)C(=O)N[C@@H](c2ccc(O)cc2)CC(=O)O[C@@H](C)C[C@@H](C)C1=O [JASPLAKINOLIDE B],3.3

# From ChEMBL document CHEMBL1158026, “New jaspamide derivatives from the marine sponge Jaspis splendans collected in Vanuatu” (J Nat Prod, 1999)
